The nature of data set [1]: Brain distribution in rats (Kp,brain, Kp,uu,brain). Conditions: rat. An excerpt:
In vivo unbound brain distribution data (Kp,uu,Brain) for 16 drugs and total brain distribution data (Kp,Brain) for 16 drugs was acquired from literature. […] For each tested compound, fifteen rats were randomly divided into five groups of three rats each. […] The time of execution of the rats by CO2 inhalation after administration was optimized according to the in vivo elimination rate to achieve five concentrations of different time points. After the rats were euthanized, cardiac puncture was performed immediately to remove as much whole blood as possible (~7 ml) from the systemic circulation (Quantitatively aliquot 0.2 ml of whole blood for the determination of drug concentration in plasma). Afterwards, the brain tissue was collected immediately and rinsed repeatedly with ice-cold saline 3 times. Then, the surface saline was blotted dry with clean filter paper to remove as much residual drug in the blood vessels as possible. Plasma samples were prepared by centrifugation of the blood samples at 2,500 g for 10 minutes at 4 °C. All brain samples were homogenized by adding 4-fold volume water. All samples were stored at -40 °C before LC-MS/MS analysis. […] The brain tissue partition coefficient (Kp, brain) and brain-to-plasma unbound drug partition ratio (Kp,uu, brain) are calculated according to the following formulas, respectively: Kp,brain=AUC(0−∞,brain)/AUC(0−∞,plasma)Kp,uu,brain=Kp,brain×(fu,tissue/fu,plasma)
Free brain-to-plasma distribution coefficients (Kp,uu,brain) of 41 drugs. Brain distribution coefficients (Kp,uu,brain) were calculated for 41 drugs. […] Plasma and brain concentration-time profiles were generated, and AUC(0-t) values for both matrices were calculated using WinNolin 8.1. Kp,brain was derived as the ratio of brain-to-plasma AUC(0-t).
Kp,uu,brain values were computed by normalizing Kp,brain to unbound fractions (fu,plasma and fu,brain).

For data set [2] the following is noted: footnote b, species not stated; ref https://go.drugbank.com; cited from earlier work.
Data set [3] can be described thus: in vitro. The settings on record: pig, pH 7.4.
Protocol: (§3) Cells were passaged at 80−90% confluence (every 2−3 days) using trypsin-EDTA solution. […] The culture medium was replaced every other day, including 200 µL culture medium in the apical and 850 µL cell culture medium in the basolateral side. LLC-PK1 MOCK cells were used at passages of 3−30. LLC-PK1-MDR1 cells were cultured and passaged in the same manner as LLC-PK1 cells except at the density of 1 × 10^4 cells per well. LLC-PK1-MDR1 cells were used at passages of 3−25. For LLC-PK1 MOCK cells and LLC-PK1-MDR1 cells, the experiments were performed on the 4th and 7th day after seeding.
(§4) Samples were collected from the donor well at the start of the incubation (50 µL) as C0, and from the donor and receiver wells at the end of the incubation (50 µL). All samples were stored at - 40 °C for LC-MS/MS analysis.
(§5) Bidirectional transport experiments. […] The transwell experiments were conducted following above-mentioned procedure. […] When the recovery rate of the tested drug is below 80%, the possibility of intracellular accumulation should be considered. The polycarbonate (PC) membrane where cells are grown should be carefully peeled off from the cell culture medium and placed in 100 µL of HBSS buffer solution. […] The process was carried out on ice to prevent heat-induced degradation, applying a power in the range of 300 W for a total duration of 20 minutes. Thereafter, a quantitative analysis of the intracellular drug was conducted, and the drug recovery rate was recalculated based on this analysis.
(§6) The apparent permeability coefficient (Papp, cm/s) was calculated for each transport direction, A-B and B-A, using the following equation: Papp=dQ/dt×1/A×C0 where dQ/dt is the permeation rate (µmol/s), A is the surface area of the insert (0.33 cm^2, Corning), and C0 is the initial donor concentration (µM).
(§7) The efflux ratio (ER) is calculated as the ratio of Papp (B-A)/Papp (A-B). Recovery=TRcumrf+Cdf×VD/Cdi×VD×100% Where TRcumrf is the cumulative transported mass in the receiver chamber at the end of the incubation (nmol), Cdf is the concentration of the drug in the donor chamber at the end of the incubation (μM), VD is the volume of the donor chamber (mL), and Cdi is the initial concentration of the drug in the donor chamber (μM).
(§8) The method of the bidirectional transport experiment was the same as before.
Data set [4] in a line: Protein binding in rat brain homogenate (equilibrium dialysis). The protocol:
(§1) Stocks (10 mM) of test compounds were diluted to 5 μM with plasma or tissue homogenate and dialyzed at 37 °C for 6 hours in a shaking incubator. After incubation aliquots of both plasma or tissue homogenate and buffer from the device were taken and added to equal volumes of blank buffer and plasma or tissue homogenate respectively. Samples were then diluted in acetonitrile containing an internal standard prior to centrifugation and analysis of the supernatants by LC-MS/MS. The fu, plasma was calculated using Equation 1:(1) fu,plasma=Concbuffer chamber/Concsample chamber
Rat fraction unbound in brain (fu, brain) was determined as the ratio of concentration in buffer to that in brain.
(§2) Unbound fractions of test drugs in plasma (fu,plasma) and brain tissue (fu,brain). For compounds with existing rat plasma or brain protein-binding data from literature or internal studies, values were directly adopted.

Data set [5] can be described thus: Bidirectional transport across LLC-PK1 MOCK monolayer (Transwell).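 On all read-outs here: compound quantified by LC-MS/MS in donor and receiver wells, efflux ratio as B-A over A-B Papp, recovery relative to initial donor amount.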 The settings on record: pig; for recovery at 2 h, 2 µM: pH 7.4, Recovery after correction of intracellular accumulation data, cell lysate included, mean±SD, n=3.
Protocol: as §3, §4, §5, §6, §7, §8
Data set [6] deals with P-gp (human MDR1). The data set is described as follows: Bidirectional transport across LLC-PK1-MDR1 monolayer stably expressing human MDR1 (P-gp) (Transwell).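 Further: 2 h incubation at 37 °C, receiver HBSS with 10 mM Hepes plus 1% BSA, LC-MS/MS of donor and receiver, recovery as receiver plus donor amount over initial donor amount.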 The settings on record: pig.
Protocol: (§9) The overexpression and functional activity of P-glycoprotein (P-gp) in the LLC-PK1-MDR1 cells were rigorously validated through multiple methods.
as §3
(§10) Monitoring permeability of positive control drugs. […] Samples were collected from the donor well at the start of the incubation (50 µL) as C0, and from the donor and receiver wells at the end of the incubation (50 µL). All samples were stored at - 40 °C for LC-MS/MS analysis.
as §5, §6, §7, §8
Data set [7] has as its system P-gp (human MDR1). As to the kind of experiment: in vitro. The settings on record: pig, LLC-PK1, pH 7.4.
Protocol: as §9, §3, §10, §5, §6, §7, §8
The conditions of data set [8]: cited from earlier work.
Details of data set [9]: method as in not given. The settings on record: stated without method; ref not given; cited from earlier work.
Data set [10] is described as follows: LLC-PK1 MOCK/MDR1 monolayer model, results stated for both cell lines jointly. Conditions: pig. How it is done: Monitoring of TEER value and LY permeability. After the LLC-PK1 MOCK/MDR1 cells attach to the Transwell insert, TEER (Transepithelial Electrical Resistance) values were continuously recorded using a cell resistance meter (Beijing JINGONGHONGTAI Technology Co., Ltd). These TEER values represent the mean from six individual inserts (n = 6) measured per group. The TEER measurement and transport experiment were conducted at 37 °C, using a heating plate to maintain the required temperature. The transmembrane resistance was calculated using the formula TEER = (Rtotal-Rblank) × Aarea, where Rblank represents the TEER of the blank chamber.
The permeability of the Lucifer Yellow CH Dipotassium Salt (LY, 100 μM) across the monolayers was measured in apical-to-basolateral direction to monitor the integrity of the cell monolayer.
Bidirectional transport experiments. […] The transwell experiments were conducted following above-mentioned procedure.

The nature of data set [11]: in vitro. Conditions: rat, plasma. How it is done: as §1, §2
Where [12] appears, read: LLC-PK1 MOCK cell monolayer (Transwell).
Where [13] appears, read: LLC-PK1, pH 7.4, Papp A-B, LLC-PK1 MOCK, 2 µM, 2 h, mean ± s, n = 3, BLQ = below 2 nM.
The mark [14] stands for this setting: LLC-PK1, pH 7.4, ER, LLC-PK1 MOCK, Papp (B-A)/Papp (A-B).
The mark [15] stands for this setting: LLC-PK1, pH 7.4, ER, LLC-PK1-MDR1, Papp (B-A)/Papp (A-B).

Where two headings read alike, the source gives them in different places.

In data set [1] (SD, in vivo, iv, 1 mg/kg), `NC(=O)C[S+]([O-])C(c1ccccc1)c1ccccc1` (stereo not shown) [Modafinil] yielded a Kp of 0.71 and a Kp uu of 0.547. The “Protein binding in plasma” value in data set [2] is 60^b %. For the same molecule, the recovery at 2 h, 2 µM in the data set “in vitro [3]” amounted to 106 ± 2.03%. The unbound share (fraction unbound) (usually the share of the substance not bound to proteins or other matrix) at 6 h, 5 µM in data set [4] is 0.308. In data set [5] (LLC-PK1, pH 7.4), the apical-to-basolateral permeability (Papp A→B) (in general, how fast a substance crosses the layer from the apical side) at 2 h, 2 µM was 20.2 ± 0.98 ×10⁻⁶ cm/s; the basolateral-to-apical permeability (Papp B→A) – broadly, the apparent permeability from the basolateral to the apical side of a cell layer – at 2 h, 2 µM was determined as 15.6 ± 0.22 ×10⁻⁶ cm/s; the efflux ratio (commonly the permeability from basolateral to apical divided by that in the opposite direction, in the common usage) at 2 h, 2 µM worked out at 0.78. In the data set on P-gp (human MDR1) [6] (LLC-PK1, pH 7.4), the Papp A→B at 2 h, 2 µM was 22.7 ± 0.45 ×10⁻⁶ cm/s; the basolateral-to-apical permeability (Papp B→A) at 2 h, 2 µM was determined as 23.9 ± 0.91 ×10⁻⁶ cm/s; the efflux ratio at 2 h, 2 µM turned out to be 1.05. Further, the recovery at 2 h, 2 µM in the data set on P-gp (human MDR1) [7] stood at 107 ± 3.4%.

As for `COCCOC(=O)C1=C(C)NC(C)=C(C(=O)OC(C)C)C1c1cccc([N+](=O)[O-])c1` (stereo not shown) [Nimodipine], the Kp uu in data set [1] was less than 0.451. The “Protein binding in plasma” value in data set [2] is given as 95.0^b %. For the same molecule, the recovery at 2 h, 2 µM in the data set “in vitro [3]” (setting [12]) came out at 109 ± 7.08%; in the data set on P-gp (human MDR1) [7], 114 ± 5.22%. The same molecule displayed an unbound share (fraction unbound) at 6 h, 5 µM in [4] (rat, brain homogenate) of less than 0.01. Also, the Papp B→A at 2 h, 2 µM worked out at 46.2 ± 1.79 ×10⁻⁶ cm/s in [5] (LLC-PK1, pH 7.4) and 44.5 ± 5.11 ×10⁻⁶ cm/s in the data set on P-gp (human MDR1) [6] (LLC-PK1, pH 7.4). For the same molecule, the efflux ratio at 2 h, 2 µM in [5] (LLC-PK1, pH 7.4) was found to be 1.37; in the data set with P-gp (human MDR1) [6] (LLC-PK1, pH 7.4), 1.39. The apical-to-basolateral permeability (Papp A→B) at 2 h, 2 µM in data set [5] (setting [13]) came out at 33.7 ± 2.08 ×10⁻⁶ cm/s; with P-gp (human MDR1) [6] (LLC-PK1, pH 7.4), 32.2 ± 1.83 ×10⁻⁶ cm/s. In data set [8] (ref Li [2020]), the “Kp, Brain” value is on record as 2.25.

`Fc1ccc([C@@H]2CCNC[C@H]2COc2ccc3c(c2)OCO3)cc1` [Paroxetine]: the Kp in data set [1] (Kp,uu,Brian) was 1.57. Besides, the recovery at 2 h, 2 µM in “in vitro [3]” (setting [12]) came out at 54.1 ± 1.86%; in data set [5] (LLC-PK1 MOCK cell monolayer (Transwell), A-B, LLC-PK1 MOCK) it was 97.6 ± 1.99%; in data set [5] (LLC-PK1 MOCK cell monolayer (Transwell), B-A, LLC-PK1 MOCK), 92.7 ± 4.03%. In addition, in [9], the pKa (as a rule, the negative logarithm of the acid dissociation constant) was more than 7. Further, the unbound share (fraction unbound) at 6 h, 5 µM in data set [4] (rat, brain homogenate) is less than 0.01; in the data set “in vitro [11]”, 0.021. The Papp B→A at 2 h, 2 µM in [5] (LLC-PK1, pH 7.4) came to 14.8 ± 0.57 ×10⁻⁶ cm/s; with P-gp (human MDR1) [6] (LLC-PK1, pH 7.4) it was 10.9 ± 0.35 ×10⁻⁶ cm/s. Further, the efflux ratio at 2 h, 2 µM amounted to 1.93 in data set [5] (setting [14]) and 2.11 with P-gp (human MDR1) [6] (setting [15]). Also, the Papp A→B at 2 h, 2 µM in data set [5] (setting [13]) is 7.65 ± 0.2 ×10⁻⁶ cm/s; in the data set on P-gp (human MDR1) [6] (LLC-PK1, pH 7.4, Papp A-B, LLC-PK1-MDR1, 2 µM, 2 h, mean ± s, n = 3) it was 5.15 ± 0.55 ×10⁻⁶ cm/s. Further, in data set [8] (ref O’Brien et al. [2012]), the “Kp, Brain” value was 3.307. Also, the recovery at 2 µM was more than 80% in data set [10] (LLC-PK1 MOCK and LLC-PK1-MDR1 cell monolayers (Transwell), pH 7.4, Recovery after cell lysate extraction, intracellular drug included); less than 80% in [10] (LLC-PK1 MOCK and LLC-PK1-MDR1 cell monolayers (Transwell), pH 7.4, Recovery, bidirectional transport, uncorrected); 80 to 120% in [10] (LLC-PK1 MOCK and LLC-PK1-MDR1 cell monolayers (Transwell), pH 7.4, with bafilomycin A1 1 µM (inhibitor of lysosomal function), Recovery, with 1 µM Bafilomycin A1, bidirectional transport).

In the case of `COc1ccc2cc1Oc1ccc(cc1)C[C@H]1c3cc(c(OC)cc3CCN1C)Oc1c(OC)c(OC)cc3c1[C@H](C2)N(C)CC3` [Tetrandrine], the pKa in data set [9] is recorded as more than 7. For the same molecule, the Papp A→B at 2 h, 2 µM was found to be 3.15 ± 0.23 ×10⁻⁶ cm/s in data set [5] (LLC-PK1, pH 7.4) and 1.55 ± 0.29 ×10⁻⁶ cm/s in the data set with P-gp (human MDR1) [6] (LLC-PK1, pH 7.4). Moreover, the Papp B→A at 2 h, 2 µM came to 4.19 ± 0.77 ×10⁻⁶ cm/s in [5] (LLC-PK1, pH 7.4) and 13 ± 2.24 ×10⁻⁶ cm/s with P-gp (human MDR1) [6] (LLC-PK1, pH 7.4). In addition, the efflux ratio at 2 h, 2 µM was determined as 1.33 in data set [5] (setting [14]) and 8.4 with P-gp (human MDR1) [6] (setting [15]). Further, the recovery at 2 h, 2 µM came to 54.1 ± 7.24% in data set [5] (A-B, LLC-PK1 MOCK) and 93.5 ± 6.72% in [5] (B-A, LLC-PK1 MOCK). Besides, the “Kp, Brain” value in data set [8] (ref Wang [2024]) is on record as 24.3. In data set [8] (ref Wang [2024]), the “Kp,uu,Brian” value is reported as 0.80. The recovery at 2 µM in data set [10] (pH 7.4, Recovery after cell lysate extraction, intracellular drug included) was more than 80%; in data set [10] (pH 7.4, Recovery, bidirectional transport, uncorrected), less than 80%; in data set [10] (pH 7.4, Recovery, with 1 µM Bafilomycin A1, bidirectional transport), 80 to 120%.

These data come from paper PMC12667295, “A surrogate barrier model for high-throughput blood-brain barrier permeability prediction: integrating LLC-PK1-MOCK/MDR1 Cells and lysosomal trapping correction” (Drug Delivery, 2025).
